From ChEMBL document CHEMBL6074667, “Discovery and Optimization of First-in-Class Molecular Glue Degraders of the WIZ Transcription Factor for Fetal Hemoglobin Induction to Treat Sickle Cell Disease” (J Med Chem, 2024)
In brackets after ≈: the same amount, converted by molar mass. Activity calls are given as the source filed them. No cut-off for these calls is given here.

Key:
[1] = biological target: T1, Protein cereblon/Protein Wiz (Homo sapiens, UniProt Q96SW2+O95785); assay: Molecular glue activity at CRBN/HiBiT-tagged WIZ (unknown origin) expressed in HEK293T cells assessed as induction of WIZ degradation incubated for 18 hrs by Nano-Glo HiBiT-Lytic reagent based luminescence plate reader analysis; format: cell-based
[2] = biological target: T1, Protein cereblon/Protein Wiz; assay: Molecular glue activity at CRBN/HiBiT-tagged WIZ (unknown origin) expressed in HEK293T cells assessed as induction of WIZ degradation incubated for 18 hrs by Nano-Glo HiBiT-Lytic reagent based luminescence plate reader analysis relative to control; format: cell-based; parameters: concentration or dose not given beside the values
[3] = biological target: T2, Protein cereblon/Sal-like protein 4 (Homo sapiens, UniProt Q96SW2+Q9UJQ4); assay: Molecular glue activity at CRBN/HiBiT-tagged SALL4 (unknown origin) expressed in human GripTite 293 MSR cells assessed as induction of SALL4 degradation incubated for 20 hrs by Nano-Glo HiBiT-Lytic reagent based luminescence plate reader analysis; format: cell-based
Target sequence in this assay (Q96SW2 whole entry): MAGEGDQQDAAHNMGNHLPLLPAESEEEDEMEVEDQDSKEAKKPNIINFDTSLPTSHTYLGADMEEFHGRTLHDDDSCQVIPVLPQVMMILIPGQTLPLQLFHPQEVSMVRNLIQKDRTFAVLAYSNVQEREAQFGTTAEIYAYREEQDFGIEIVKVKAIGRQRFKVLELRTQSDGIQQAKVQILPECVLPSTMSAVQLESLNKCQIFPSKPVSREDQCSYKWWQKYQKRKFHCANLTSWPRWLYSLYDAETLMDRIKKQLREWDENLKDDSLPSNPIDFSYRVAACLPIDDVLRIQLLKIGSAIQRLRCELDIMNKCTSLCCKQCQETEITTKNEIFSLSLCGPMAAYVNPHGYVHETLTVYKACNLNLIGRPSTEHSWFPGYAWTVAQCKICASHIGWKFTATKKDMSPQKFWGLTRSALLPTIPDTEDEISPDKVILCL
Target sequence in this assay (Q9UJQ4 whole entry): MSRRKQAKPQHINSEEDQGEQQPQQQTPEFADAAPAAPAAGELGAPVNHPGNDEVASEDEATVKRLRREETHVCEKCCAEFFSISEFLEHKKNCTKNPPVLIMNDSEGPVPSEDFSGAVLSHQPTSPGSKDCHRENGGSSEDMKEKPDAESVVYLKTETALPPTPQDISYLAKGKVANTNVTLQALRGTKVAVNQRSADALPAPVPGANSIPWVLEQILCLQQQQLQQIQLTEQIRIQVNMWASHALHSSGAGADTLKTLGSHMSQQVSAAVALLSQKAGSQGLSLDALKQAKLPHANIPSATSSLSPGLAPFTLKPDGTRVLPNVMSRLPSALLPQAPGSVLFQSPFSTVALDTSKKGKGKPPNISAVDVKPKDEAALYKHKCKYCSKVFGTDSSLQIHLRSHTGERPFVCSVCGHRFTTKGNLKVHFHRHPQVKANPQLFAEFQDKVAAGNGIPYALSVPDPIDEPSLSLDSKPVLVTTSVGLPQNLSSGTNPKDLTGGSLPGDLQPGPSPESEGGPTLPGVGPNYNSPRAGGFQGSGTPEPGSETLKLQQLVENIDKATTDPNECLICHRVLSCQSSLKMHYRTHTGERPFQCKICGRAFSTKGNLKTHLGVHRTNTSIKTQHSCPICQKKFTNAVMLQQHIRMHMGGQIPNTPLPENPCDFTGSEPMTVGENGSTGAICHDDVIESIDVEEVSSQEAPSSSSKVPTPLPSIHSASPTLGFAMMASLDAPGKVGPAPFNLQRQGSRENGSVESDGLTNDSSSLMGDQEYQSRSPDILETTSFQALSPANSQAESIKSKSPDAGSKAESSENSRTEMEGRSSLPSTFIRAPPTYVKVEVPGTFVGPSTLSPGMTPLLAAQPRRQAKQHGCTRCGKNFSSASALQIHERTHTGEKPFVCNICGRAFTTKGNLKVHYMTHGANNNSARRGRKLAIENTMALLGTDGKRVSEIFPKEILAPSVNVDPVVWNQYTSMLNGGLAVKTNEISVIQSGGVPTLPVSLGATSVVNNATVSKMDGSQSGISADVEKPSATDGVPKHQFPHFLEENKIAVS

[4] = biological target: T2, Protein cereblon/Sal-like protein 4; assay: Molecular glue activity at CRBN/HiBiT-tagged SALL4 (unknown origin) expressed in human GripTite 293 MSR cells assessed as induction of SALL4 degradation incubated for 20 hrs by Nano-Glo HiBiT-Lytic reagent based luminescence plate reader analysis relative to control; format: cell-based; parameters: concentration or dose not given beside the values
Target sequence in this assay (Q96SW2 whole entry, looked up): as the sequence (Q96SW2 whole entry) above
Target sequence in this assay (Q9UJQ4 whole entry, looked up): as the sequence (Q9UJQ4 whole entry) above

Cereblon/Ikaros [5] = biological target: T3, Cereblon/Ikaros (Homo sapiens, UniProt Q96SW2+Q13422); assay: Molecular glue activity at CRBN/HiBiT-tagged IKZF1 (unknown origin) expressed in human GripTite 293 MSR cells assessed as induction of […] incubated for 20 hrs by Nano-Glo HiBiT-Lytic reagent based luminescence plate reader analysis; format: cell-based
T3 sequence (Q96SW2 whole entry): as the sequence (Q96SW2 whole entry) above
T3 sequence (Q13422 whole entry): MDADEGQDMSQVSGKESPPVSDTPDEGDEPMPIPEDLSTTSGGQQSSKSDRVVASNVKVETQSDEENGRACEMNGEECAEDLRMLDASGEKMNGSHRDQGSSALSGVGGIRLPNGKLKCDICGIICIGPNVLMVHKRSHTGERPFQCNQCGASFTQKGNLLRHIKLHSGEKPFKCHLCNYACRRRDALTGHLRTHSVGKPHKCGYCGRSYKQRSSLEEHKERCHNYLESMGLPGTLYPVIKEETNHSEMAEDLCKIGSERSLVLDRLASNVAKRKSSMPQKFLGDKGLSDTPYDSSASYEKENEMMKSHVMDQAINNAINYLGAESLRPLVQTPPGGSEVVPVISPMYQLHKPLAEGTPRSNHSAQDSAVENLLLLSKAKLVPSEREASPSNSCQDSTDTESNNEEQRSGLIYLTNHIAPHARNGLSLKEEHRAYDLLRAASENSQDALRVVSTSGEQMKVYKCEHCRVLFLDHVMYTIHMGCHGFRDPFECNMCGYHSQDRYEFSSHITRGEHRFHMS

Cereblon/Ikaros [6] = biological target: T3, Cereblon/Ikaros; assay: Molecular glue activity at CRBN/HiBiT-tagged IKZF1 (unknown origin) expressed in human GripTite 293 MSR cells assessed as induction of […] incubated for 20 hrs by Nano-Glo HiBiT-Lytic reagent based luminescence plate reader analysis relative to control; format: cell-based; parameters: concentration or dose not given beside the values
[7] = biological target: T4, Protein cereblon/Eukaryotic peptide chain release factor GTP-binding subunit ERF3A (Homo sapiens, UniProt Q96SW2+P15170); assay: Molecular glue activity at CRBN/HiBiT-tagged GSPT1 (unknown origin) expressed in human GripTite 293 MSR cells assessed as induction of GSPT1 degradation incubated for 20 hrs by Nano-Glo HiBiT-Lytic reagent based luminescence plate reader analysis; format: cell-based
Target sequence in this assay (Q96SW2 whole entry): as the sequence (Q96SW2 whole entry) above
Target sequence in this assay (P15170 whole entry): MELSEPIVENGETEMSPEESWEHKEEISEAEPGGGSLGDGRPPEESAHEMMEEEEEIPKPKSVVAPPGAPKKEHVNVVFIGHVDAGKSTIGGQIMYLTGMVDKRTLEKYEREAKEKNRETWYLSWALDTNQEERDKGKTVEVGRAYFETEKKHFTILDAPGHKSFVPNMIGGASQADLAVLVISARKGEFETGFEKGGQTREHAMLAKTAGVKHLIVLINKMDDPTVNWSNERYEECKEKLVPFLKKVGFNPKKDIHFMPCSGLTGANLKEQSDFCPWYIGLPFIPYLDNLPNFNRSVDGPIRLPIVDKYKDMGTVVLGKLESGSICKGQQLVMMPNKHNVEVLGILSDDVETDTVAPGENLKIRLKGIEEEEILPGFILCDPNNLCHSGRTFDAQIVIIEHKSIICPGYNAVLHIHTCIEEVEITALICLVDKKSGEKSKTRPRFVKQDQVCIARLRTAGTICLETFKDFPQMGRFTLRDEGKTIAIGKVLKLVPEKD

[8] = biological target: T4, Protein cereblon/Eukaryotic peptide chain release factor GTP-binding subunit ERF3A; assay: Molecular glue activity at CRBN/HiBiT-tagged GSPT1 (unknown origin) expressed in human GripTite 293 MSR cells assessed as induction of GSPT1 degradation incubated for 20 hrs by Nano-Glo HiBiT-Lytic reagent based luminescence plate reader analysis relative to control; format: cell-based; parameters: concentration or dose not given beside the values
[9] = biological target: T1, Protein cereblon/Protein Wiz; assay: Molecular glue activity at CRBN/WIZ in human CD34-positive derived primary erythroblast assessed as induction of WIZ degradation by flow cytometric analysis; format: cell-based
[10] = biological target: T1, Protein cereblon/Protein Wiz; assay: Molecular glue activity at CRBN/WIZ in human CD34-positive derived primary erythroblast assessed as induction fetal hemoglobin by flow cytometric analysis; format: cell-based
[11] = Solubility of compound in potassium phosphate buffer at pH 6.8 incubated for 16 to 24 hrs by high-throughput Agilent Rapidfire-MS/MS analysis; format: physicochemical; settings: time 16-24 hrs
[12] = Apparent permeability across apical to basolateral side in low efflux MDCK cells at 10 uM incubated for 2 hrs by LC-MS analysis; format: ADME, cell-based, Canis lupus familiaris; settings: dog
[13] = Apparent permeability across apical to basolateral side in low efflux MDCK cells assessed as drug recovery at 10 uM incubated for 2 hrs by LC-MS analysis; format: ADME, cell-based, Canis lupus familiaris; settings: dog, read-out: Drug recovery
[14] = Intrinsic clearance in mouse liver microsomes; format: ADME, Microsome; settings: read-out: CLH
[15] = Intrinsic clearance in rat liver microsomes; format: ADME, Microsome; settings: read-out: CLH
[16] = Intrinsic clearance in human liver microsomes; format: ADME, Microsome; settings: read-out: CLH
[17] = Protein binding in mouse plasma; format: ADME, cell-free; settings: read-out: PPB (converted)
[18] = Protein binding in rat plasma; format: ADME, cell-free; settings: read-out: PPB (converted)
[19] = Protein binding in human plasma; format: ADME, cell-free; settings: read-out: PPB (converted)
[20] = Half-life in C57BL/6 mouse at 1 mg/kg, iv; format: ADME, organism-based; settings: in vivo
[21] = Clearance in C57BL/6 mouse at 1 mg/kg, iv; format: ADME, organism-based; settings: in vivo
[22] = Volume of distribution at steady state in C57BL/6 mouse at 1 mg/kg, iv; format: ADME, organism-based; settings: in vivo, read-out: Vdss
[23] = AUClast in C57BL/6 mouse at 3 mg/kg, po; format: ADME, organism-based; settings: in vivo
[24] = Cmax in C57BL/6 mouse at 3 mg/kg, po; format: ADME, organism-based; settings: in vivo
[25] = Tmax in C57BL/6 mouse at 3 mg/kg, po or 1 mg/kg, iv; format: ADME, organism-based; settings: in vivo
[26] = Bioavailability last in C57BL/6 mouse; format: ADME, organism-based; settings: in vivo
[27] = biological target: T1, Protein cereblon/Protein Wiz; assay: Molecular glue activity at CRBN/WIZ in human CD34-positive derived primary erythroblast cells assessed as induction of WIZ degradation by measuring maximal efficacy measured after 24 hrs by flow cytometric analysis relative to control; format: cell-based
[28] = biological target: T1, Protein cereblon/Protein Wiz; assay: Molecular glue activity at CRBN/WIZ in human CD34-positive derived primary erythroblast cells assessed as increase in fetal hemoglobin positive cells in CD71+ CD235a+ subpopulation measured after 7 days by flow cytometric analysis relative to control; format: cell-based; settings: time 7.0 day
[29] = biological target: T1, Protein cereblon/Protein Wiz; assay: In vivo molecular glue activity at CRBN/WIZ in immunocompromised naive NBSGW mouse xenografted with human CD34 positive HSPC cells assessed as induction of WIZ degradation in peripheral blood human […] B cells administered orally once daily for 21 days by staining based analysis; format: functional, organism-based; settings: route po, time 21.0 day
[30] = biological target: T1, Protein cereblon/Protein Wiz; assay: In vivo molecular glue activity at CRBN/WIZ in immunocompromised naive NBSGW mouse xenografted with human CD34 positive HSPC cells assessed as induction of WIZ degradation in peripheral blood human C19-positive B cells by measuring maximal efficacy at 1 to 10 mg/kg, po administered once daily for 21 days by staining based analysis relative to control; format: functional, organism-based; settings: dose 1-10 mg/kg, time 21.0 day
[31] = biological target: T1, Protein cereblon/Protein Wiz; assay: In vivo molecular glue activity at CRBN/WIZ in immunocompromised naive NBSGW mouse xenografted with human CD34 positive HSPC cells assessed as fold increase in Hbf-positive cells in moCD45 negative hCD45negative CD71positive CD235A positive bone marrow cells at 1 to 10 mg/kg, po administered once daily for 21 days by staining based analysis; format: functional, organism-based; settings: dose 1-10 mg/kg, time 21.0 day
[32] = Toxicity in immunocompromised naive NBSGW mouse xenografted with human CD34 positive HSPC cells assessed as effect on body weight at 1 to 10 mg/kg, po administered once daily for 21 days; format: organism-based; settings: in vivo, 504 h, dose 1-10 mg/kg, time 21 day
[33] = biological target: T1, Protein cereblon/Protein Wiz; assay: In vivo molecular glue activity at CRBN/WIZ in immunocompromised naive NBSGW mouse xenografted with human CD34 positive HSPC cells assessed as induction of WIZ degradation in peripheral blood human C19-positive B cells by measuring maximal efficacy at 0.01 to 1 mg/kg, po administered once daily for 21 days by staining based analysis relative to control; format: functional, organism-based; settings: dose 0.01-1 mg/kg, time 21.0 day
[34] = biological target: T1, Protein cereblon/Protein Wiz; assay: In vivo molecular glue activity at CRBN/WIZ in immunocompromised naive NBSGW mouse xenografted with human CD34 positive HSPC cells assessed as fold increase in Hbf-positive cells in moCD45 negative hCD45negative CD71positive CD235A positive bone marrow cells at 0.01 to 1 mg/kg, po administered once daily for 21 days by staining based analysis; format: functional, organism-based; settings: dose 0.01-1 mg/kg, time 21.0 day

| DC50 [1] [µM] | Activity [2] [%] | DC50 [3] [µM] | Activity [4] [%] | DC50 (Cereblon/Ikaros [5]) [µM] | Activity (Cereblon/Ikaros [6]) [%] | DC50 [7] [µM] | Activity [8] [%] | solubility [11] [µM] | Papp A→B at 2 h, 10 µM [12] [×10⁻⁶ cm/s] | recovery at 2 h, 10 µM [13] [%] | microsomal CLint [14] [µL/min/mg] | microsomal CLint [15] [µL/min/mg] | microsomal CLint [16] [µL/min/mg] | fraction unbound [17] | fraction unbound [18] | fraction unbound [19] | half-life [20] [h] | clearance [21] [mL/min/kg] | Vd [22] [L/kg] | Structure (SMILES) | other results |
| --- | --- | --- | --- | --- | --- | --- | --- | --- | --- | --- | --- | --- | --- | --- | --- | --- | --- | --- | --- | --- | --- |
| 0.008 | 82 | > 50 | 11 | > 50 | < 10 | > 50 | < 10 | – | – | – | – | – | – | – | – | – | – | – | – | CCN1CCC2(CC2)[C@@H](Oc2ccc3c(c2)CN(C2CCC(=O)NC2=O)C3=O)C1 (some centres undefined) | – |
| – | 93 | – | 58 | – | < 11 | – | < 11 | 640 (≈ 247 µg/mL) | 0.37 | 66 | < 25 | < 25 | < 25 | > 0.8 | 0.58 | 0.69 | 1.9 | 28 | 2.9 | C[C@@H](Oc1ccc2c(c1)CN(C1CCC(=O)NC1=O)C2=O)[C@H]1CCCCN1C (some centres undefined) | Activity [9]: Active; Activity [10]: Active; AUC(0-t) [23]: 0.115 µM·h; Cmax [24]: 24 nM; Tmax [25]: 3 h; bioavailability [26]: 2.7% |
| – | 82 | 3.8 | 50 | > 50 | < 10 | > 50 | < 10 | 450 (≈ 173 µg/mL) | 1.1 | 95 | < 25 | < 25 | < 25 | > 0.8 | > 0.8 | > 0.8 | 1.7 | 22 | 2.2 | CCN1CCCC[C@@H]1COc1ccc2c(c1)CN(C1CCC(=O)NC1=O)C2=O (some centres undefined) | AUC(0-t) [23]: 0.713 µM·h; Cmax [24]: 157 nM; Tmax [25]: 2.3 h; bioavailability [26]: 13%; Emax [27]: 74%; Activity [28]: 20%; Activity [29]: Dose-dependent-effect; Emax [30]: 63%; fold change (FC) [31]: 5; Activity [32]: Non-toxic |
| > 25 | 42 | > 50 | 32 | > 50 | < 10 | > 50 | < 10 | – | – | – | – | – | – | – | – | – | – | – | – | CCN1C[C@@H](C)C[C@@H](Oc2ccc3c(c2)CN(C2CCC(=O)NC2=O)C3=O)C1 (mixture of isomers) | – |
| – | 87 | – | 26 | – | < 10 | – | < 10 | – | – | – | – | – | – | – | – | – | – | – | – | CCN1C[C@H](C)C[C@@H](Oc2ccc3c(c2)CN(C2CCC(=O)NC2=O)C3=O)C1 (stereo in doubt; 10) | Emax [27]: 84%; Activity [28]: 40%; Activity [29]: Dose-dependent-effect; Emax [33]: 60%; fold change (FC) [34]: 5 |
| 0.026 | 77 | > 50 | 28 | > 50 | < 10 | > 50 | < 10 | – | – | – | – | – | – | – | – | – | – | – | – | CCN1CCC[C@@H](Oc2ccc3c(c2)CN(C2CCC(=O)NC2=O)C3=O)C1 (some centres undefined) | – |
